# From PMC7376443 (Bioorganic & medicinal chemistry letters, 2020)
# Assays:
# Format in all cases: biochemical
# [1] = target: T1, ChTS-DHFR (thymidylate synthase-dihydrofolate reductase), TS activity (Cryptosporidium hominis, UniProt A0A0S4TER9)
# [2] = target: human TS (thymidylate synthase, hTS) (Homo sapiens, UniProt P04818); assay: TS activity assay, enzyme preincubated with compound without dUMP, […]
# [3] = target: T1, ChTS-DHFR (thymidylate synthase-dihydrofolate reductase), TS activity; assay: radiolabeled CH2H4F to H2F turnover by HPLC, single concentration […]
# human TS (thymidylate synthase, hTS), sequence (P04818 2-313): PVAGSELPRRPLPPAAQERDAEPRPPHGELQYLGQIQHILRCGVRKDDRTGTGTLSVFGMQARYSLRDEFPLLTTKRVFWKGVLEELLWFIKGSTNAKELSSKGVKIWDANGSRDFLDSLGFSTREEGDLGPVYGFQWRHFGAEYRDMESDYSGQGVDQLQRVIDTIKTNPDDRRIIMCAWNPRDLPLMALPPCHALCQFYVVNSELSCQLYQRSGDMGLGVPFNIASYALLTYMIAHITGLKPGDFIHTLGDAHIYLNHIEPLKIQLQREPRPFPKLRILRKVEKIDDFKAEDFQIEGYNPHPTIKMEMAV
Substance,IC50 [1] [µM],% inhibition at 500 uM [2],% Inhibition of ChTS Activity at 500 μM [3]
HTS 00950 [compound 6],172 ± 11,~ 50,
HTS 03850 [compound 2],,,76 ± 9
CD 11057 [compound 7],,,46.0 ± 0.8
HTS 00967 [compound 10],,,55 ± 1
